Test results published in patent publication US8507481B2, “Benzoxazine oxazolidinone compounds, preparation methods and uses thereof” (Shanghai Institute of Materia Medica, Chinese Academy of …, priority 2010, dated 2013).
Converted amounts (≈) assume the structure as drawn. “And” between values parts separate entries of the source, which are not always exact repeats. Equal values may be shown once. Read-outs that look alike come from different tables or passages of the source.

Assays:
[1] = In vivo pharmacokinetic trial in rat (gavage and intravenous injection); design: species or system SD male rats
Procedure: The tested compound was Compound 7, using two administration routes (gavage and intravenous injection).
(§1) Gavage: four healthy SD male rats weighing 200-250 g were given a dose of 15 mg/kg, with an administered volume of 10 mL/kg. And the compound was prepared as 0.5% CMC—Na. The animals were fasted for 12 hours and had free access to water before administration, 0.3 mL of venous blood was sampled through retrobulbar venous plexus at 0.25, 0.5, 1, 0, 2.0, 3.0, 4.0, 5.0, 7.0, 9.0, 24, and 48 hours after administration and collected in heparinized test tubes, which is subjected to centrifugation at 3500 rpm for 10 min to separate the plasma, and stored at −20° C. for testing.
as §1, with “Intravenous injection: two” for “Gavage: four”, “using DMSO, Tween 80 and deionized water.” for “as 0.5% CMC—Na.”, “5 min, 15 min,” for “0.25,”, “1.0,” for “1, 0,”
Concentration of Compound 7 in plasma was determined using liquid chromatography-tandem mass spectrometry.

[2] = tested on: methicillin-resistant Staphylococcus aureus (MRSA); assay: In vivo antibacterial activity in mice infected with MRSA; design: species or system Kunming mice; details: for ED50: Staphylococcus aureus
Excerpt: Experimental strains: the bacteria used for infecting animals was methicillin-resistant Staphylococcus aureus (MRSA), which was clinically isolated pathogenic bacteria collected in Nanjing area in 2009, and re-identified by the API method.
Experimental animals: Healthy Kunming mice of SPF grade and weighing 18-22 g were chosen, and male and female were 50% each, and they were supplied by animal breeding office of Pharmacology Laboratory, China Pharmaceutical University.
Test method of infection and treatment: The experimental animals were evenly grouped by sex and weight, each group had 10 mice, including 50% of male and female, respectively. Intraperitoneal injection of bacteria solution was performed among animals at 0.5 mL/animal. One hour after infection, the tested drug solution (Compound 7 of the present invention and the positive control drug LZ) of different concentrations were given to each animal by oral gavage or intravenous injection at 0.5 mL/20 g, respectively. For mice receiving oral gavage, another gavage was given 4 hours after the first dose, observation was performed after administration, and death was recorded. An infected control group was set up for the same group, and the number of the deaths within seven days after infection was recorded.
Experimental data processing: median effective dose ED50 and 95% confidence limits were calculated by Bliss for in vivo protective effect of each tested drug among mice infected with tested strain.

[3] = tested on: Pneumococcus drug-resistant strain (4 strains); assay: MIC by agar dilution, pneumococcus drug-resistant strains; type: cell-based; design: unit not given here; details: 35° C., 16 hours
Procedure: (§2) Test method: minimal inhibitory concentration (MIC) of series of compounds of the present invention and the positive control drug linezo lid against the tested strains was determined using agar dilution method (Antimicrob. Agents and Chemother., 40, 1996. 720-726). The bacteria was inoculated on the surface of agar plates with different drug concentrations using a multi-point inoculation instrument (Denley A400). Inoculum of each point was about 10^6 CFU/mL, and inoculation was performed at 35° C. for 16 hours to get observation. The minimal concentration of a drug contained in the plate medium without bacteria growth was considered as the minimal inhibitory concentration (MIC value) of the drug against bacteria.
(§3) Tested strains: the tested strains were clinically isolated pathogenic bacteria collected in the Nanjing area, and re-identified by conventional methods before use. 31 pathogenic bacteria are selected, and strain serial numbers were as following: six enterococci; five Staphylococcus aureus sensitive strains; five Staphylococcus epidermidis sensitive strains; six Staphylococcus aureus drug-resistant strains; five Staphylococcus epidermidis drug-resistant strains; four pneumococcus drug-resistant strains.
(§4) At first, tested compounds were added into 2 mL of DMSO, which could facilitate full dissolution, and then sterile double distilled water was added to a desired concentration; 20 mL MH medium in heat-melted to liquid was added to each of plates with drug solution, so that the final drug concentrations in the plates were 64, 32, 16, 8, 4, 2, 1, 0.5, 0.25, 0.125, 0.0625 and 0.031 μg/mL.
(§5) The positive control group was LZ (linezolid, trade name Zyvox, which was approved by the FDA in 2000 to be first launched in the United States and is the first and only oxazolidinone antibacterial drug permitted to be used in clinical practice at present).

[4] = tested on: Staphylococcus epidermidis drug-resistant strain (5 strains); assay: MIC by agar dilution, Staphylococcus epidermidis drug-resistant strains; type: cell-based; details: 35° C., 16 hours
Procedure: as §2, §3, §4, §5

[5] = tested on: Staphylococcus epidermidis sensitive strain (5 strains); assay: MIC by agar dilution, Staphylococcus epidermidis sensitive strains; type: cell-based; design: unit not given here; details: 35° C., 16 hours
Procedure: as §2, §3, §4, §5

[6] = tested on: Staphylococcus aureus drug-resistant strain (6 strains); assay: MIC by agar dilution, Staphylococcus aureus drug-resistant strains; type: cell-based; design: unit not given here; details: 35° C., 16 hours
Procedure: as §2, §3, §4, §5

[7] = tested on: Enterococcus (6 strains); assay: MIC by agar dilution, Enterococcus; type: cell-based; details: 35° C., 16 hours
Procedure: as §2, §3, §4, §5

[8] = tested on: Staphylococcus aureus sensitive strain (5 strains); assay: MIC by agar dilution, Staphylococcus aureus sensitive strains; type: cell-based; details: 35° C., 16 hours
Procedure: as §2, §3, §4, §5

[9] = gavage 15 mg/kg, individual animals No. 1-4, 15 mg/kg
[10] = gavage 15 mg/kg, mean of 4 animals
[11] = intravenous injection 15 mg/kg, individual animals No. 5-6, 15 mg/kg
[12] = intravenous injection 15 mg/kg, mean of 2 animals
[13] = male, SD, plasma, iv, 15 mg/kg, intravenous injection 15 mg/kg, individual animals No. 5-6
[14] = male, SD, plasma, po, 15 mg/kg, gavage 15 mg/kg, individual animals No. 1-4
[15] = male, SD, plasma, po, 15 mg/kg, gavage 15 mg/kg, mean of 4 animals

With `CC(=O)NC[C@@H]1OC(=O)N2c3ccc(-c4ccc(C#N)nc4)cc3OC[C@@H]12` [Compound 7, N-(((3S,3aS)-7-(6-cyanopyridin-3-yl)-1-oxo-1,3,3a,4-tetrahydrobenzo[b]oxazole-[3,4-d][1,4]oxazin-3-yl)methyl)acetamide] the metabolic properties ([1]; 15 mg/kg gavage and intravenous injection) was “good metabolic properties”, the AUC0-t [1, 9] was 57191 ng·h/mL and 61593 ng·h/mL and 79448 ng·h/mL and the “AUC0-∞” value [1, 9] was 57255 ng·h/mL and 61983 ng·h/mL and 79622 ng·h/mL. The CLz [1, 9] was 0.224 L/h/kg and 0.262 L/h/kg and 0.242 L/h/kg and 0.188 L/h/kg, the Cmax [1, 9] was 3958 ng/mL and 4772 ng/mL and 6269 ng/mL and the MRT [1, 9] was 8.65 h and 8.79 h and 9.09 h. The Tmax [1, 9] was 2.0 h and 5.0 h, the Vz [1, 9] was 1.81 L/kg and 1.79 L/kg and 2.22 L/kg and 1.44 L/kg and the t1/2 [1, 9] was 4.74 h and 6.36 h and 5.31 h. It also gave a CLz [1, 10] of 0.229 L/h/kg, a Vz [1, 10] of 1.82 L/kg and a Tmax ([1]; intravenous injection 15 mg/kg, individual animals No. 5-6) of 2.0 h. The AUC0-t [1, 11] was 87218 ng·h/mL, the “AUC0-∞” value [1, 11] was 87475 ng·h/mL and the CLz [1, 11] was 0.197 L/h/kg and 0.171 L/h/kg. It also gave an MRT [1, 11] of 8.77 h, a Vz [1, 11] of 1.42 L/kg and a t1/2 [1, 11] of 5.72 h. For the same compound, the “AUC0-∞” value [1, 12] was 81844 ng·h/mL, the CLz [1, 12] was 0.184 L/h/kg and the Tmax [1, 12] was 2.0 h. For the same compound, the t1/2 [1, 12] was 5.58 h, the AUC(0-inf) [1, 13] was 76200 ng·h/mL and the half-life [1, 13] was 326 min. The AUC0-t ([1]; male, SD, plasma, iv, 15 mg/kg, intravenous injection 15 mg/kg, individual animals No. 5-6, read-out: AUC0-t) was 76100 ng·h/mL, the Cmax ([1]; male, SD, plasma, iv, 15 mg/kg, intravenous injection 15 mg/kg, individual animals No. 5-6, read-out: Cmax) was 7510 ng/mL and the MRT ([1]; male, SD, plasma, iv, 15 mg/kg, intravenous injection 15 mg/kg, individual animals No. 5-6, read-out: MRT) was 7.98 h. For the same compound, the Vd ([1]; male, SD, plasma, iv, 15 mg/kg, intravenous injection 15 mg/kg, individual animals No. 5-6, read-out: Vz) was 1.55 L/kg, the AUC0-t ([1]; male, SD, plasma, iv, 15 mg/kg, intravenous injection 15 mg/kg, mean of 2 animals, read-out: AUC0-t) was 81600 ng·h/mL and the Cmax ([1]; male, SD, plasma, iv, 15 mg/kg, intravenous injection 15 mg/kg, mean of 2 animals, read-out: Cmax) was 7510 ng/mL. For the same compound, the MRT ([1]; male, SD, plasma, iv, 15 mg/kg, intravenous injection 15 mg/kg, mean of 2 animals, read-out: MRT) was 8.37 h, the Vd ([1]; male, SD, plasma, iv, 15 mg/kg, intravenous injection 15 mg/kg, mean of 2 animals, read-out: Vz) was 1.48 L/kg and the AUC(0-inf) [1, 14] was 67100 ng·h/mL. The half-life [1, 14] was 336 min, the AUC0-t ([1]; male, SD, plasma, po, 15 mg/kg, gavage 15 mg/kg, individual animals No. 1-4, read-out: AUC0-t) was 66900 ng·h/mL and the Cmax ([1]; male, SD, plasma, po, 15 mg/kg, gavage 15 mg/kg, individual animals No. 1-4, read-out: Cmax) was 5450 ng/mL. It also gave an MRT ([1]; male, SD, plasma, po, 15 mg/kg, gavage 15 mg/kg, individual animals No. 1-4, read-out: MRT) of 7.96 h, an AUC(0-inf) [1, 15] of 66500 ng·h/mL and a half-life [1, 15] of 330 min. For the same compound, the AUC0-t ([1]; male, SD, plasma, po, 15 mg/kg, gavage 15 mg/kg, mean of 4 animals, read-out: AUC0-t) was 66300 ng·h/mL, the Cmax ([1]; male, SD, plasma, po, 15 mg/kg, gavage 15 mg/kg, mean of 4 animals, read-out: Cmax) was 5110 ng/mL and the MRT ([1]; male, SD, plasma, po, 15 mg/kg, gavage 15 mg/kg, mean of 4 animals, read-out: MRT) was 8.62 h. The Tmax ([1]; male, SD, plasma, po, 15 mg/kg, gavage 15 mg/kg, mean of 4 animals, read-out: Tmax) was 4 h, the bioavailability ([1]; male, SD, plasma, po, gavage 15 mg/kg, calculated as AUC0-t, read-out: F (absolute bioavailability)) was 81.2% and the ED50 ([2]; MRSA) was 5.53 mg/kg. The ED50 ([2]; MRSA, ip) was 5.92 mg/kg and the “in vivo activity compared with control drug LZ” value ([2]; mouse model infected with MRSA) was “significantly better than that of the control drug LZ”.
In the case of `N#Cc1ccc(-c2ccc3c(c2)OC[C@H]2[C@@H](Cn4ccnn4)OC(=O)N32)cn1` [Compound 49, (3R,3aS)-3-((1H-1,2,3-triazol-1-yl)methyl)-7-(6-cyanopyridin-3-yl)-3a,4-dihydrobenzo[b]oxazole[3,4-d][1,4]oxazine-1(3H)-one], the “MIC, Pneumococcus drug-resistant strain (4 strains)” value (from here on “MIC … (4 strains)”) [3] is reported as 0.5, the “MIC, Staphylococcus epidermidis drug-resistant strain (5 strains)” value [4] is reported as 0.25 µmol/mL (≈ 93.6 µg/mL) and the “MIC, Staphylococcus epidremidis sensitive strain (5 strains)” value [5] is reported as 0.25. The “MIC, Staphylococcus aureus drug-resistant strain (6 strains)” value [6] was 0.25, the “MIC, Enterococcus (6 strains)” value [7] was 0.5 µmol/mL (≈ 187 µg/mL) and the “MIC, Staphylococcs aureus sensitive strain (5 strains)” value [8] was 0.5 µmol/mL (≈ 187 µg/mL).
In the case of `Cn1nnnc1-c1ccc(-c2ccc3c(c2)OC[C@H]2[C@@H](Cn4ccnn4)OC(=O)N32)cn1` [Compound 51, (3R,3aS)-3-((1H-1,2,3-triazol-1-yl)methyl)-7-(6-(1-methyl-1H-tetrazol-5-yl)pyridin-3-yl)-3a,4-dihydrobenzo[b]oxazole[3,4-d][1,4]oxazine-1(3H)-one], the “MIC … (4 strains)” value [3] is reported as 0.5, the “MIC, Staphylococcus epidermidis drug-resistant strain (5 strains)” value [4] is reported as 0.5 µmol/mL (≈ 216 µg/mL) and the “MIC, Staphylococcus epidremidis sensitive strain (5 strains)” value [5] is reported as 0.5. For the same compound, the “MIC, Staphylococcus aureus drug-resistant strain (6 strains)” value [6] was 0.5, the “MIC, Enterococcus (6 strains)” value [7] was 0.5 µmol/mL (≈ 216 µg/mL) and the “MIC, Staphylococcs aureus sensitive strain (5 strains)” value [8] was 0.25 µmol/mL (≈ 108 µg/mL).
For `CC(=O)NC[C@H]1CN(c2ccc(N3CCOCC3)c(F)c2)C(=O)O1` [LZ, linezolid, reference compound], the ED50 ([2]; ip, mice infected i.p. with MRSA, p.o (gavage 1 h after infection and again 4 h after first dose), deaths within seven days, read-out: ED50) was 8.5 mg/kg and the ED50 ([2]; mice infected i.p. with MRSA, iv 1 h after infection, deaths within seven days, read-out: ED50) was 8.51 mg/kg.
In the case of “N(((3S,3aS)-7-(6-(4-methyl piperazin-1-yl)pyridin-3-yl)-1-oxo-1,3,3a,4-tetrahydrobenzo[b]oxazole-[3,4-d][1,4]oxazin-3-yl)methyl)acetamide [Compound 62]”, the “MIC … (4 strains)” value [3] is reported as 0.5, the “MIC, Staphylococcus epidermidis drug-resistant strain (5 strains)” value [4] is reported as 0.5 µmol/mL and the “MIC, Staphylococcus epidremidis sensitive strain (5 strains)” value [5] is reported as 0.5. For the same compound, the “MIC, Staphylococcus aureus drug-resistant strain (6 strains)” value [6] was 0.5, the “MIC, Enterococcus (6 strains)” value [7] was 0.5 µmol/mL and the “MIC, Staphylococcs aureus sensitive strain (5 strains)” value [8] was 0.5 µmol/mL.
